Assay results taken from patent US20210009959A1, “METHODS FOR ENHANCING OSTEOGENIC DIFFERENTIATION USING VITAMIN D” (priority 2019, published 2021).

Tests used:
[1] = system: human adipose stem cells (hASCs); experiment: ALP activity of hASCs seeded in BCP scaffold; format: cell-based
Description: (§1) In one embodiment, a method of static culture of hASCs by pre-treatment with vitamin D3 (calcitriol) and attachment of hASCs to the scaffold used in one-step surgical procedure comprises the following steps. At one step, isolating hASCs as explained in FIG. 1. In an embodiment, the hASCs from three donors at passage 3 are used for further processing. As an optional step, the obtained hASCs are either or not incubated for a period of about 30 mins with low concentrated calcitriol of about 10 nM at room temperature.
(§2) At next step, the calcitriol treated hASCs are washed twice with Phosphate Buffered Saline (PBS) to remove calcitriol. Further, the washed hASCs are centrifuged and resuspended in Dulbecco's Minimum Essential Medium (DMEM) without any supplements. At another step, the resuspended cells are seeded on the scaffold and allowed to attach to the scaffolds for a period of about 30 minutes. At next step, the scaffolds with attached cells are transferred to 12-well plates with Costar® Transwell® containers (Corning Life Sciences, Lowell, Mass., USA) containing expansion medium (DMEM) supplemented with 10% Fetal Clone I (FCI), antibiotics (1% penicillin/streptomycin/fungizone (PSF)), 50 μM ascorbic acid (Merck, Darmstadt, Germany), and 10 mM β-glycerol phosphate (Merck, Darmstadt, Germany) (PLGA/β-TCP). At next step, the hASCs seeded scaffolds are incubated at 5% CO2 in a humidified incubator at predefined temperature of about 37° C. for a period of about 3 weeks.
Referring to FIGS. 5A and 5B, the effects of calcitriol treatment on ALP activity of hASCs, where the calcitriol pre-treatment is conducted for a short period of 30 minutes and a long period of about 3 weeks. […] The ALP activity of continuous treated cells with calcitriol is increased by 2.6-fold relative to non-treated cells after 2 weeks of culture.

[2] = system: human adipose stem cells (hASCs); experiment: Osteogenic gene expression of hASCs seeded on BCP20/80 scaffold; format: cell-based; conditions: for RUNX2 gene expression, increase: 30 min incubation
Description: as §1, §2
Referring to FIGS. 8A to 8I, the effects of short and long calcitriol treatment on osteogenic gene expression of hASCs is disclosed, where hASCs are seeded in BCP scaffold. The stimulatory effect of 30 min calcitriol on osteogenic gene expression in hASCs seeded on BCP20/80 at day 21 is more noticeable than continuous calcitriol treatment. The 30 mins incubation with calcitriol increases the RUNX2 (early osteogenic marker) gene expression in hASCs by 3.6-fold after 2 weeks, and 5.7-fold after 3 weeks of culture compared to non-treated hASCs. FIGS. 8A to 8I exemplarily illustrate the effects of calcitriol treatment on osteogenic gene expression of hASCs.
The 30 minutes pre-treatment of hASCs with calcitriol increases VEGF189 gene expression, whereas in continuous calcitriol treatment, the VEGF189 gene expression reaches almost steady expression levels during the 3 weeks of culture. The VEGF189 gene expression in 30 minutes calcitriol pre-treated hASCs is increased by 1.5-fold at day 21, but it is decreased in continuous treatment by 0.6-fold compared to non-treated hASCs as shown in FIG. 8I.

[3] = continuous treatment, 3 weeks of culture

Structure (SMILES): C=C1/C(=C\C=C2/CCC[C@]3(C)[C@@H]([C@H](C)CCCC(C)(C)O)CC[C@@H]23)C[C@@H](O)C[C@@H]1O [calcitriol, 1,25-dihydroxyvitamin D3]
- ALP activity, increase ([1]; 30 min pre-treatment, after 2 weeks of culture, vs non-treated cells): 18.5 fold
- ALP activity, increase ([1]; 30 min pre-treatment, after 3 weeks of culture): 2.4 fold
- ALP activity, increase ([1]; continuous treatment with 10 nM, after 2 weeks, vs non-treated cells): 2.6 fold
- ALP activity, change ([1]; continuous treatment with 10 nM, at 3 weeks): 0.4 fold
- ALP gene expression ([2]; 30 min calcitriol, BCP20/80): upregulates
- RUNX2 gene expression, increase ([2]; after 2 weeks, vs non-treated hASCs): 3.6 fold
- RUNX2 gene expression, increase ([2]; after 3 weeks, vs non-treated hASCs): 5.7 fold
- CYP24 gene expression ([2]; 30 min pre-treated cells): not expressed
- Ki-67 gene expression ([2]; 30 min pre-treatment, 3 weeks of culture): decreases
- VDR gene expression ([2]; 30 min pre-treatment, compared to continuous treatment, maximal stimulation at day 14): increases
- SPARC expression, increase ([2]; 30 min pre-treatment, day 14): 2.1 fold
- VEGF189 gene expression, increase ([2]; 30 min pre-treatment, day 21, vs non-treated hASCs): 1.5 fold
- OPN expression ([2]; 30 min treatment, day 21): increases
- CYP24 gene expression [2, 3]: remarkably increases
- Ki-67 gene expression [2, 3]: no change
- RUNX2 expression, decrease ([2]; continuous treatment, after 2 weeks): 0.81 fold
- RUNX2 expression, increase ([2]; continuous treatment, after 3 weeks): 2.4 fold
- OPN gene expression ([2]; continuous treatment, day 4): upregulates
- SPARC expression, decrease ([2]; continuous treatment, day 14): 0.8 fold
- VEGF189 gene expression, decrease ([2]; continuous treatment, day 21, vs non-treated hASCs): 0.6 fold
- DMP1 gene expression ([2]; over about 3 weeks, treatment group not specified): gradual and insignificant increase
